Activity calls are given as the source filed them. The rule behind the calls is not given here.
Experiments:
[1] = target: Beta-1 adrenergic receptor (Canis lupus familiaris) (UniProt P79148)
[2] = target: Beta-1 adrenergic receptor (Canis lupus familiaris) (UniProt P79148); remark: listed apart in the source
[3] = target: Beta-1 adrenergic receptor (Cavia porcellus, UniProt B0FL73); assay: The compound was tested in vitro for its ability to block Beta-1 adrenergic receptor in guinea pig right atria preparation; details: read-out: pA2 (converted)
[4] = target: Beta-1 adrenergic receptor (Cavia porcellus) (UniProt B0FL73); assay: Cardioselectivity expressed as antilog of pA2 (atria)-pA2 (trachea).
[5] = target: Beta-1 adrenergic receptor (Cavia porcellus) (UniProt B0FL73); assay: The compound was tested in vitro for its ability to block Beta-1 adrenergic receptor in guinea pig right atria preparation at 10e-5M; inactive
[6] = target: Beta-1 adrenergic receptor (Cavia porcellus) (UniProt B0FL73)
Description: The compound was tested in vivo for its ability to block beta-1-adrenergic receptor in guinea pig right atria preparation at a duration of 3h

Beta-1 adrenergic receptor (Cavia porcellus), sequence (B0FL73 1-467): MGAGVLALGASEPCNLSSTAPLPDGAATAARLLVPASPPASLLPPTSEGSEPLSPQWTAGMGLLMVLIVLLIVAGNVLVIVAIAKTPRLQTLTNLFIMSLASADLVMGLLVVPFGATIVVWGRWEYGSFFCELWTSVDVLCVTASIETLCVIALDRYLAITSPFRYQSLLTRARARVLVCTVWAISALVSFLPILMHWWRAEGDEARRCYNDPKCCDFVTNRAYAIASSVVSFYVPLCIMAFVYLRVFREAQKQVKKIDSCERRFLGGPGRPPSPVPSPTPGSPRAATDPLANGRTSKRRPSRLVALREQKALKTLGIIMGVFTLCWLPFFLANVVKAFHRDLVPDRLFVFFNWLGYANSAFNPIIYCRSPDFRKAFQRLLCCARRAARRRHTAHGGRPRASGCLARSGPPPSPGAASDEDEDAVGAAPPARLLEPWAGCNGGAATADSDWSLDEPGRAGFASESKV
Beta-1 adrenergic receptor, sequence (B0FL73 whole entry): as the sequence (B0FL73 1-467) above

Structure (SMILES)	In vivo duration [1]	In vivo duration [2]	further results
COC(=O)c1ccc(OCC(O)CNC(C)C)cc1 (stereo not drawn)	31 min	–	–
COC(=O)c1ccccc1OCC(O)CNCCc1ccc(OC)c(OC)c1 (stereo not drawn)	–	30 min	–
COC(=O)CCc1ccc(OCC(O)CNC(C)(C)C)cc1 (stereo not drawn)	–	15 min	–
COC(=O)c1ccccc1OCC(O)CNC(C)(C)C (stereo not drawn)	12 min	22 min	–
C=COC(=O)c1ccccc1OCC(O)CNC(C)C (stereo not drawn)	–	–	Kb [3]: 12.6 nM
COC(=O)/C=C/c1ccc(OCC(O)CNC(C)C)cc1 (stereo not drawn)	–	> 60 min	Cardio selectivity [4]: 18
COC(=O)c1ccc(OCC(O)CNC(C)(C)C)cc1 (stereo not drawn)	22 min	–	–
COC(=O)CCc1ccc(OCC(O)CNCCCc2ccccc2)cc1 (stereo not drawn)	–	–	Cardio selectivity [4]: 20
COC(=O)Cc1ccc(OCC(O)CNC(C)C)cc1 (stereo not drawn)	20 min	> 60 min	–
C=COC(=O)c1ccc(OCC(O)CNC(C)C)cc1 (stereo not drawn)	–	–	Kb [3]: 501 nM; Cardio selectivity [4]: 5
COC(=O)CCc1ccc(OCC(O)CNCCc2ccc(OC)c(OC)c2)cc1 (stereo not drawn)	–	14 min	Cardio selectivity [4]: 20
COC(=O)CCc1ccc(OCC(O)CNC(C)C)cc1 (stereo not drawn)	12 min	12 min	–
COC(=O)CCCc1ccc(OCC(O)CNC(C)C)cc1 (stereo not drawn)	40 min	> 60 min	Cardio selectivity [4]: 13
CC(C)NCC(O)COc1ccc(C(=O)O)cc1 (stereo not drawn)	–	–	pA2 [5]: inactive
CCOC(=O)CCc1ccc(OCC(O)CNC(C)C)cc1 (stereo not drawn)	–	43 min	Cardio selectivity [4]: 30
C=COC(=O)c1cccc(OCC(O)CNC(C)C)c1 (stereo not drawn)	–	–	Kb [3]: 126 nM; In vivo duration [6]: > 60 min
CC(=O)Nc1ccc(OCC(O)CNC(C)C)cc1 (stereo not drawn)	61 min	–	–

Now from value to compound, other results behind:

In vivo duration [1]	In vivo duration [2]	Structure (SMILES)	further results
56 min	–	CCOC(=O)c1ccc(OCC(O)CNC(C)C)cc1 (stereo not drawn)	–
15 min	15 min	COC(=O)c1ccccc1OCC(O)CNC(C)C (stereo not drawn)	–
–	38 min	CCOC(=O)c1ccccc1OCC(O)CNC(C)(C)C (stereo not drawn)	–
–	29 min	COC(=O)CCc1ccccc1OCC(O)CNC(C)C (stereo not drawn)	–
–	55 min	COC(=O)c1ccccc1OCC(O)CNC(C)(C)CO (stereo not drawn)	–
